Measured values reported in ChEMBL document CHEMBL1201862, “PubChem BioAssay data set” (2004).
Activity calls are given as the source filed them.

What was measured:
Cytochrome P450 2D6 = Cytochrome P450 2D6 (Homo sapiens, UniProt P10635);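 note: CYP2D6 member of a cytochrome P450 panel assay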
Cytochrome P450 2C9 = Cytochrome P450 2C9 (Homo sapiens, UniProt P11712)
Cytochrome P450 2C19 = Cytochrome P450 2C19 (Homo sapiens, UniProt P33261); assay: Cytochrome panel assay with activity outcomes. Panel member name: p450-cyp2c19 Compounds with AC50 equal or less than 10 uM are considered active; assay type: functional
Chain of Cytochrome P450 2C19 (P33261 whole entry): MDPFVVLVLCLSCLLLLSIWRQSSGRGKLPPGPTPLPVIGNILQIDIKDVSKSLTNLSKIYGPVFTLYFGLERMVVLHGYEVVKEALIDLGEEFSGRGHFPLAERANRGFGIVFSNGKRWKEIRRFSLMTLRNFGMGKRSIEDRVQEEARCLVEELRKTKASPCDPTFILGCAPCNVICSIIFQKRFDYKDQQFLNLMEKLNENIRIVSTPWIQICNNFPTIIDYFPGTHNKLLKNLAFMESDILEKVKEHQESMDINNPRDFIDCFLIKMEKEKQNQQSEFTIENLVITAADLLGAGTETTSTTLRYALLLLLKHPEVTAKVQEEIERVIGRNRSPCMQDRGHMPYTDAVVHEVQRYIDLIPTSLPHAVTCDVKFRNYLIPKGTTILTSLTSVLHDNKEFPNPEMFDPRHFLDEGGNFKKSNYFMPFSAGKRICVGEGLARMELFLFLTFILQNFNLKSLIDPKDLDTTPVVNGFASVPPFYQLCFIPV

[1] = Luminescence Cell-Based Dose Retest to Confirm Inhibitors of Cancer Stem Cells. [Related pubchem assays (depositor defined):AID2717, AID2721]; assay type: functional; settings: Homo sapiens
[2] = Trypanosoma cruzi growth suppression in host cells – NIH3T3 host cells, beta-gal luminescence, confirmation (AID 2044); assay type: functional, cell-based;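 note: intracellular parasites grown in NIH/3T3 mouse fibroblasts as host cells; luminescent beta-galactosidase reporter signal from transgenic T. cruzi replicating inside host cells; inhibitors lower the luminescence signal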
[3] = NIH3T3 cell viability loss – ATP luminescence, mouse fibroblasts, counter-screen, dose response (AID 2010); assay type: functional, cell-based;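 note: cells exposed to compound for about 90 hours before reading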
[4] = system: Streptococcus sp. 'group A'; assay: Streptococcus pyogenes SK(-)GAS viability under kanamycin – luminescence, BacTiterGlo, confirmation, counter-screen for streptokinase expression inhibitor project, dose response (AID 1900); assay type: functional, organism-based
Streptococcus = assay: GAS UMAA2166 growth inhibition – luminescence, BacTiterGlo, counter-screen for streptokinase expression inhibitor project, dose response (AID 1915); assay type: functional, organism-based;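 note: potency for reduction of bacterial viability or growth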

Chain of Cytochrome P450 2C9 (P11712 whole entry): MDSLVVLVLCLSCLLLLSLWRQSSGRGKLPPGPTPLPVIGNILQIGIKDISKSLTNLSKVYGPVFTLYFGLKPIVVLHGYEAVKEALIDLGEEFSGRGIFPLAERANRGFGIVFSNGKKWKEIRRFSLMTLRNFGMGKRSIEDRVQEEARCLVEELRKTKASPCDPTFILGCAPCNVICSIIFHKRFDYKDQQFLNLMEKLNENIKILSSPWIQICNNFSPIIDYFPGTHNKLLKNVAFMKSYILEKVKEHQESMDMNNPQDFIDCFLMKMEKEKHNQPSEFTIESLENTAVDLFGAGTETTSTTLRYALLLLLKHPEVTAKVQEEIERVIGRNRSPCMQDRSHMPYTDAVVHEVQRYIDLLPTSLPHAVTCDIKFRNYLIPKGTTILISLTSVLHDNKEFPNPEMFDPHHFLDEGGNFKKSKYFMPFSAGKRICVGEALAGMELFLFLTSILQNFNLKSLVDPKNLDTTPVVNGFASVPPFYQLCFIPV
Chain of Cytochrome P450 2D6 (P10635 whole entry): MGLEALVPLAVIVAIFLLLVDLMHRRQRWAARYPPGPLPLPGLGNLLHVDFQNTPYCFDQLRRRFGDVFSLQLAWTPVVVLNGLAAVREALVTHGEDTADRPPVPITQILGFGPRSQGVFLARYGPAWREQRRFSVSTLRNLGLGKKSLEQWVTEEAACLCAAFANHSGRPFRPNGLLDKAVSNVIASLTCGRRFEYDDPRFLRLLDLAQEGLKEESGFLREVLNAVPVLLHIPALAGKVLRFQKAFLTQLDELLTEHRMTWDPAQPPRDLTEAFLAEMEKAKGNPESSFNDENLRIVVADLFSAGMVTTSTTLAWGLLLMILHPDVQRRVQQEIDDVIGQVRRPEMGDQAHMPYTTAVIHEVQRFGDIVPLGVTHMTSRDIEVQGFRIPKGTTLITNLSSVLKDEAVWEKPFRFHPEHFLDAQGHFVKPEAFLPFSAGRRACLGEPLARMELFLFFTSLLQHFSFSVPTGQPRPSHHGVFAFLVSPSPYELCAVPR

With `Cn1c(Sc2ccc(-c3cccnc3)n2C)ccc1-c1cccnc1` the AC50 (Cytochrome P450 2D6) was 3.16 µM (inconclusive) and the AC50 (Cytochrome P450 2C9) was 3.98 µM (inconclusive).

In the case of `CCc1nc2c(c(SC)nn2-c2ccccc2)c(N)c1C(=O)OC`, the AC50 (Cytochrome P450 2C9) is reported as 1.12 µM (inconclusive) and the AC50 (Cytochrome P450 2C19; read-out: AC50) is reported as 25.1 µM (inconclusive).

For `C[C@@]12CCC=C[C@H]1[C@H](c1ccc(F)c(/C=C/c3ccccc3)c1)N(Cc1ccccc1)C2=O`, the AC50 [1] was 2.84 µM (active).

In the case of `Cc1ccc(NS(=O)(=O)c2cc3c4c(cccc4c2)C(=O)NC3=O)cc1C`, the AC50 [1] is reported as 5.69 µM (active).

With `CC(C)C12CC[C@@]3(CC[C@H]4[C@@](C)(CCC[C@]4(C)C(=O)O)[C@@H]3C1)[C@@H](CN)C2` the AC50 (Cytochrome P450 2C9) was 1.26 µM (inconclusive).

In the case of `CCOc1ccc(CN2CCN(Cc3cc4ccccc4[nH]3)CC2CCO)cc1` (stereo not given), the EC50 [2] is reported as 0.371 µM (active) and the EC50 [3] is reported as > 60 µM (not active).

In the case of `CCOc1cc(/C=C\c2nc(O)nc(O)c2[N+](=O)[O-])ccc1OC(C)CC` (stereo not given), the AC50 [1] is reported as 8.11 µM (active).

In the case of `CN(C)c1ncc2nc(CCc3ccccc3)c(=O)n(CCc3ccccc3)c2n1`, the AC50 (Cytochrome P450 2D6) is reported as 7.94 µM (inconclusive).

With `Oc1cc(O)c2c(c1)O[C@@H](c1ccc(O)c(O)c1)[C@H](O[C@@]1(c3cc(O)c(O)c(O)c3)Oc3cc(O)cc(O)c3[C@H](O)[C@@H]1O)C2` the AC50 (Cytochrome P450 2C9) was 6.31 µM (inconclusive) and the AC50 (Cytochrome P450 2C19; read-out: AC50) was 3.98 µM (inconclusive).

In the case of `COc1cc(-c2ccc3c(=O)c4ccccc4n(C)c3c2)cc(OC)c1OC`, the AC50 [1] is reported as 9.62 µM (active).

With `O=C(CSc1ccc(Cl)cc1)Nc1cccc(NC(=O)c2ccco2)c1` the AC50 (Cytochrome P450 2C9) was 5.01 µM (inconclusive).

In the case of `O=c1c2ccccc2nc(/C=C/c2ccccc2F)n1-c1ccccc1O`, the AC50 [1] is reported as 2.4 µM (active).

With `CCOc1ccc(-n2cc(-c3ccccc3)c3c(S)ncnc32)cc1` the EC50 [4] was 6.95 µM (active) and the EC50 (Streptococcus) was 14.9 µM (active).

In the case of `COc1ccccc1CNc1nc(-c2cccc(C#N)c2)nc2ccccc12`, the AC50 (Cytochrome P450 2C9) is reported as 1 µM (inconclusive).

For `CCOc1cc(CNCCCN2CCOCC2)ccc1OCC(=O)NC(C)(C)C`, the EC50 [2] was 0.87 µM (active) and the EC50 [3] was > 60 µM (not active).

With `Cc1cccc(Cl)c1OCCCCn1ccnc1` the EC50 [2] was 1.62 µM (active) and the EC50 [3] was > 60 µM (not active).

For `CCCc1nnc(NC(=O)CCC(=O)NCc2ccccc2OC)s1`, the AC50 (Cytochrome P450 2C19; read-out: AC50) was 11.2 µM (inconclusive).

With `COc1ccc(C2NCCc3c2[nH]c2ccccc32)cc1CN1CCc2cc(OC)c(OC)cc2C1C` (stereo not given) the EC50 [2] was 1.98 µM (active) and the EC50 [3] was > 60 µM (not active).

In the case of `CSc1[nH]c(-c2ccc(C)cc2)nc1S(=O)(=O)c1ccccc1`, the AC50 (Cytochrome P450 2C9) is reported as 11.2 µM (inconclusive).

For `N=C(NOC(=O)COc1ccc2ccccc2c1Br)c1ccncc1`, the EC50 [2] was 2.84 µM (active) and the EC50 [3] was > 60 µM (not active).

With `CC(C)c1c(CN(C)[C@@H](C)Cc2ccccc2)n(C)n(-c2ccccc2)c1=O` [FAMPROFAZONE] the AC50 (Cytochrome P450 2D6) was 10 µM (inconclusive) and the AC50 (Cytochrome P450 2C19; read-out: AC50) was 15.8 µM (inconclusive).

For `FC(F)(F)c1ccc(CNCCc2ccc3c(c2)OCO3)cc1`, the EC50 [2] was 0.308 µM (active) and the EC50 [3] was > 60 µM (not active).

In the case of `O=c1c(-c2cccs2)nc2cnc(N3CCNCC3)nc2n1-c1ccccc1`, the AC50 (Cytochrome P450 2D6) is reported as 20 µM (inconclusive) and the AC50 (Cytochrome P450 2C9) is reported as 20 µM (inconclusive).

For `Cc1ccc(-c2csc(N/N=C/c3ccco3)n2)cc1`, the AC50 (Cytochrome P450 2C9) was 20 µM (inconclusive).

For `Cc1noc(C)c1C(=O)N1CCC2(CCN(Cc3cc(C(F)(F)F)cc(C(F)(F)F)c3)CC2)CC1`, the AC50 (Cytochrome P450 2D6) was 39.8 µM (inconclusive).

For `Clc1ccccc1CNCC1CCC(CNCc2ccccc2Cl)CC1` (stereo not given), the AC50 (Cytochrome P450 2C9) was 1.26 µM (inconclusive).

With `COc1cc2nc(N3CCN(C(=O)OCc4ccccc4)[C@H](C(=O)NC(C)(C)C)C3)nc(N)c2cc1OC` [L-765314] the AC50 (Cytochrome P450 2D6) was 31.6 µM (inconclusive).

In the case of `Oc1[nH]c2ccccc2c1N=Nc1ccc(C(F)(F)F)cn1`, the AC50 (Cytochrome P450 2C19) is reported as “inconclusive”.

With `OCCNc1nc(NCCC2=CCCCC2)nc(N2CCOCC2)n1` the AC50 (Cytochrome P450 2C19; read-out: AC50) was 15.8 µM (inconclusive).

In the case of `Cc1noc(C)c1C(=O)N1CCC[C@@]2(CCN(c3ccccn3)C2)C1`, the AC50 (Cytochrome P450 2D6) is reported as 6.31 µM (inconclusive).

For `COc1ccc(/C(C)=N/NC(=O)c2ccc(CSc3cccc4cccnc34)cc2)cc1OC`, the AC50 (Cytochrome P450 2C9) was 1.26 µM (inconclusive).

For `COc1ccccc1-c1cc(NCc2cccnc2)ncn1`, the AC50 (Cytochrome P450 2D6) was 20 µM (inconclusive).

With `COc1cccc2c1C(=N)c1c(O)c3c(c(O)c1C2=O)C[C@](O)(C(C)=O)C[C@@H]3O[C@H]1C[C@H](N)[C@@H](O)[C@H](C)O1` the AC50 (Cytochrome P450 2D6) was 3.16 µM (inconclusive).
